We go through 2 compounds from US6294568A, “5-arylpyrrole derivatives” (priority 1997, dated 2001).

The test system of one experiment is carrageenan footedema. In words: Carrageenan Footedema Suppression Test. As to conditions: oral; paw volume three hours after carrageenan administration. Format: in vivo, SD rats. As for the experimental part: The carrageenin footedema suppression test was conducted according to the method of Winter et al. (J. Pharm. Exp. Ther., Vol.141, 369 (1963)). The test samples suspended in Tween 80 were administered orally to SD rats (6 rats per 1 group) in an amount of 1 ml per 100 g of the body weight, while only the solvent was administered in the same manner as above as a control. One hour after the administration, 1% carrageenan physiological saline was injected subcutaneously to the rats in the plantar area of the right hind paw. Three hours after the carrageenan administration, the paw volumes were measured and the edematization rate (%) was calculated with Formula 1 and then edematization suppression rate (%) was calculated with Formula 2.
Edematization rate (%)=((paw volume after carrageenan injection- paw volume before carrageenan injection)/(paw volume before carrageenan injection)×100 Formula: 1
Edematization suppression rate (%)=((edematization rate of control-
edematization rate of test samples)/edematization rate of […]
A general note: The carrageenan paw model is a standard test of acute inflammation.

For a further experiment, the target named is T1, Human COX-1 (Homo sapiens, UniProt P23219).
T1 construct: endogenous in cells; host or cells: whole blood of a healthy human donor (own knowledge: TXB2 of clotting blood comes from platelet COX-1)
In words: Human COX-1 Inhibitory Activity Test (TXB2 in blood). As to conditions: IC50 from Hill Plot. Type of experiment: cell-based. As for the experimental part: (§1) COX-1 and COX-2 activities were measured according to the method of Patrignani et al. (J. Pharm. Exp. Ther. Vol. 271, 1705 (1994)).
(1) COX-1 activity was measured in the following procedure. […] The serum obtained by 10 minutes of centrifugation at 2000 rpm at 4° C. was stored at -40° C. until the measurement of the amount of thromboxane B2 (TXB2). The test samples, which had been dissolved in ethanol and diluted to the specified concentrations, were previously dispensed into the glass test tubes, and the solvent was evaporated to dryness by Centrifugal Vaporizer (CVE-200D, manufactured by Tokyo Rika Mfg. Co., Ltd.) so that the test samples were added to the plasma.
(3) The measurement for the TXB2 content was conducted in the following procedure. In a part of a 96 well plate coated with anti-rabbit IgG antibody, 2 wells were allotted respectively to blank well, Non-specific Binding (NSB) well, Maximum Binding (B0) well, standard wells at 7 concentrations of TXB2 (1000 pg/ml) in doubling dilution ranging from 1000-15.6 pg/ml. The rest of the wells were used for the measurement of the samples. EIA buffer was added to the NSB wells (100 μl ) and B0 wells (50 μl), respectively. 50 μl of each of the standard dilution was added in an order from thinner to thicker concentrations. Each of the samples was added to the rest of the wells in an amount of 50 μl. Then, 50 μl of TXB2 tracer was added to each of the wells except for the blank wells. Further, 50 μl of TXB2 antibody was added to each of the wells except for the NSB wells and blank wells, then the well plate was covered with a plastic film and the reaction continued for 18 hours at room temperature. When the reaction was terminated, the wells were washed 5 times with a wash buffer. 200 μl of Elman's reagent was added to each of the wells and then the well plate was covered with a plastic film and developed for 60 minutes in a dark place. The absorbance at 405 nm was measured by an Immuno Reader (NJ-2000, manufactured by Nippon Intermed Co., Ltd.). From the measurement result, %B/B0 was calculated and, applying it to the approximation formula of Hill Plot, the concentration of the samples was determined to be 2,000 times concentration. […]

Experiment [1] addresses T2, Human COX-2 (Homo sapiens, UniProt P35354).
T2 construct: endogenous in cells; host or cells: heparinised whole blood of a healthy human donor pretreated with aspirin, stimulated with LPS (own knowledge: COX-2 is induced in monocytes)
T2 sequence (P35354 18-604): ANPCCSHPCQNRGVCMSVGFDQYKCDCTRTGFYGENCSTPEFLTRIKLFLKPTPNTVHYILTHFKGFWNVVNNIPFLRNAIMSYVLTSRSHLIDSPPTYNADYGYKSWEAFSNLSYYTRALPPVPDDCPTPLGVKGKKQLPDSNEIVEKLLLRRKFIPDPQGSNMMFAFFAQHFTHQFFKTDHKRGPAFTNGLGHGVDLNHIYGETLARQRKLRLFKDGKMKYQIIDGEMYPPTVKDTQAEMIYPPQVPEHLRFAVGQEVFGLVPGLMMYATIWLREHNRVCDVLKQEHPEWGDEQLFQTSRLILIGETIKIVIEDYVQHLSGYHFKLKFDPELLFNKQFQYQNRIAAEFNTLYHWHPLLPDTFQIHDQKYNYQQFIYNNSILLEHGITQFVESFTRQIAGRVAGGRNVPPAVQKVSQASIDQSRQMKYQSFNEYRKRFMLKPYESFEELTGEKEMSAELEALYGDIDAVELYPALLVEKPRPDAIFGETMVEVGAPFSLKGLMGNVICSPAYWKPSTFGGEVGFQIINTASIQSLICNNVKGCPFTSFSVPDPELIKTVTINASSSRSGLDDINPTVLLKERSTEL
As to conditions: ratio of IC50 COX-1 to COX-2; cited from earlier work.

Experiment [2] addresses T2, Human COX-2. Put plainly: Human COX-2 Inhibitory Activity Test (LPS-induced PGE2 in blood). Format: cell-based. As for the experimental part: as §1
(2) COX-2 activity was measured in the following procedure. To blood collected from a healthy normal who had taken 330 mg of aspirin 48 hours before the blood collection in order to inhibit the COX-1 activity, 10 unit/ml of sodium heparin was added, and then pipetted into glass test tubes by 1 ml. 10 μg/ml of Lipopolysaccharide (LPS) was added thereto and the plasma obtained by the specified operation was stored at -40° C. until the measurement for the amount of prostaglandin E2 (PGE2). Test samples containing the test samples were treated in the same manner of operation as described above.
(4) The measurement for the PGE2 content was conducted in the following procedure. In a part of 96 well plate coated with goat anti-mouse antibody, 2 wells were alloted respectively to a blank well, Non-specific Binding (NSB) well, Maximum Binding (B0) well, standard wells at seven concentrations of PGE2 (1000 pg/ml) in doubling dilution ranging from 1000-15.6 pg/ml. The rest of the wells were used for the sample measurement. EIA buffer was added to the NSB wells (100 μl) and to the B0 wells (50 μl), respectively. 50 μl of each of the standard dilution was added in an order from thinner to thicker concentrations. Each of the samples was added to the rest of the wells in an amount of 50 μl. Then, 50 μl of PGE2 tracer was added to each of the wells except for blank wells. Further, 50 μl PGE2 monoclonal antibody was added to each of the wells except for the NSB wells and blank wells, then the well plate was covered with a plastic film and the reaction continued at room temperature for 18 hours. When the reaction was terminated, the wells were washed 5 times with a wash buffer. 200 μl of Elman's reagent was added to each of the wells, and then the well plate was covered with a plastic film and developed for 60 minutes in a dark place. The absorbance at 405 nm was measured by an Immuno Reader (NJ-2000, manufactured by Nippon Intermed Co., Ltd.). From the measurement result, %B/B0 was calculated and, applying it to the approximation formula of Hill Plot, the concentration of the samples was determined to be 40 times concentration. The dilution was conducted with an EIA buffer throughout the Test Example 3.

For a further experiment, the system named is CaCo-2 cells. Put plainly: Cytostatic Action Test on Various Cells (XTT method). Format: cell-based. As for the experimental part:
The cytostatic measurement of the various cancer cells were conducted according to the method of the U.S. National Cancer Institute (NCI). Adhesive cells such as CaCo-2 and HepG2 were adjusted in each of the specified culture mediums at 0.5×10^5 cells/ml concentration and pipetted into a 96 well-plate (Costar3695) in an amount of 100 μl/well. The cells were cultured under the conditions of at 37° C. in 5% CO2 atmosphere for 24 hours to allow the cell adhesion, and then the numbers of each of the cells were determined by the XTT method to be recorded as the cell number of day 0 (C0days). After that, only the medium solutions were exchanged in the control groups, and culture mediums each containing the test samples adjusted to each of the specified concentrations were exchanged In the test sample dispensing groups, then the cells were cultured under the conditions of at 37° C. in 5% CO2 atmosphere for 72 hours. The numbers of each of the cells were determined by the XTT method to be recorded as the cell number of day 3 (C3days). Further, only the medium solutions were pipetted into the control groups and the test sample administration groups were adjusted to 5×10^5 cells/ml concentrations in each of the specified culture mediums containing the test samples adjusted to each of the specified concentrations, then pipetted into a 96 well-plate (Costar3695) in an amount of 100 μl/well. The cells were cultured under the condition of at 37° C. in 5% CO2 atmosphere for 72 hours, and the number of each of the cells (T3days) were determined in the same manner.
Cell proliferation rate (%) with respect to control groups=[(T3days
-C0days)/(C3days -C0days)]×100 Formula: 5
On the technique in general: Tetrazolium assays rely on reduction of a dye to a coloured formazan, in cell work by metabolically active cells.

The subject of another experiment is Sarcoma 180 solid tumor. In words: Antitumor Effect with respect to Sarcoma 180 Solid Tumor Mouse. Format: in vivo, ICR mice. As to conditions: 10 mg/kg in abdominal cavity, 10 days; day 11. How it is done: The antitumor effect test was conducted according to the method of the U. S. National Cancer Institute (NCI) (Cancer Chemotherapy Reports part 3, Vol. 3, 1 (1978)). Cell suspension of Sarcoma 180 cells (mouse sarcoma virus) which was employed as the tumor cell strain for transplant was prepared by diluting the cells in the Hank's solution at 2×10^7 cells/ml concentration ([…]), and ICR mice (10 mice per group) aged 5 weeks were injected subcutaneously with 0.2 ml of the cell suspension at the region of the back. Setting the day of the tumor transplantation as day 0. the mice were administered in the abdominal cavity with the compounds of the invention (Preparation Examples 1 and 37), 5-fluorouracyl, and the solution as the control for 10 days consecutively from day 1. On day 11, the mice were sacrificed, and portions of the solid tumor were removed so that weights thereof were measured. The dosage of each of the test samples was 10 mg/kg.

Where only a bound is given, the exact number is not on record here.

T1 sequence (P23219 24-599): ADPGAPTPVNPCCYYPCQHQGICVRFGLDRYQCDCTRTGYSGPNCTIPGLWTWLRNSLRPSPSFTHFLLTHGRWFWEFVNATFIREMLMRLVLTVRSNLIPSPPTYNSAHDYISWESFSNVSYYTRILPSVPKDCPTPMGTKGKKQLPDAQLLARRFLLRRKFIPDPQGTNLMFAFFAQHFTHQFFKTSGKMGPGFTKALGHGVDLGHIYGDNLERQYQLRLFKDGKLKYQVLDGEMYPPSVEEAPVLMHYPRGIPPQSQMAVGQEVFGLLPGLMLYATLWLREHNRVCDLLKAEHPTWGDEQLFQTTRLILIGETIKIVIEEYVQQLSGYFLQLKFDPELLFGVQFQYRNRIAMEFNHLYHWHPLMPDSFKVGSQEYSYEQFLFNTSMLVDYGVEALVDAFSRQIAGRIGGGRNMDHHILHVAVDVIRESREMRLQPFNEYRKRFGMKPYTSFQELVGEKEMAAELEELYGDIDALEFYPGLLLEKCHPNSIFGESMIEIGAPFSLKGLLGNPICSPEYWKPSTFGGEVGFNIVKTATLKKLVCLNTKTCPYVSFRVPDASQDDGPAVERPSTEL

By IC50 is commonly meant the midpoint of a concentration-inhibition curve. For `CS(=O)(=O)c1ccc(-c2[nH]ccc2-c2ccc(F)cc2)cc1` [Control compound (b), 4-(4-fluorophenyl)-5-(4-methylsulfonylphenyl)-1H-pyrrole, reference compound], the “Edematization Suppression rate” value in the experiment on carrageenan footedema was -1.8%. On Human COX-1, the IC50 was 373000 nM. For the same compound, at Human COX-2 [1], the “COX-1/COX-2 (value specified in the literature)” value was 29.4.

As for `Cc1cc(-c2ccc3c(ccn3C)c2)c(-c2ccc(S(C)(=O)=O)cc2)[nH]1` [Preparation Example 37, 4-(5-N-methylindolyl)-2-methyl-5-(4-methylsulfonylphenyl)-1H-pyrrole], the “Edematization Suppression rate” value with carrageenan footedema was 26.5%. Besides, the IC50 on Human COX-2 [2] (human blood, LPS, PGE2, IC50 from Hill Plot) was found to be 140 nM; in the experiment with CaCo-2 cells (Homo sapiens, CaCo-2, 72 hours, XTT method, read-out: Cytostatic rate (IC50)), 950 nM. Besides, on Human COX-2 [2] (ratio of IC50 COX-1 to COX-2), the COX-1/COX-2 was more than 714. Besides, the “cytostatic action” value in the experiment with CaCo-2 cells (CaCo-2 cells, colon cancer cells) is “demonstrated a cytostatic action with respect to CaCo-2 cells”. In addition, the “Tumor Weight” value in the experiment with Sarcoma 180 solid tumor is on record as 0.906 g.
